Experimental data taken from patent publication US20110236897A1, “NOVEL MARKERS FOR […] DISEASE CAUSED BY BRAIN INJURY AND USE THEREOF” (priority 2010, published 2011).
“Also recorded” adds a separate entry of the source.

System: cerebral cortex of F1 C57BL/6N mice
Experiment: Microarray expression profiling of F1 cerebral cortex after prenatal exposure to MDMA
[1] = F1 female, prenatal MDMA 20 mg/kg/day vs vehicle
[2] = F1 male, prenatal MDMA 20 mg/kg/day vs vehicle
[3] = common to F1 females and males, cerebral cortex, compared with control group, hydrochloride

Compound: CNC(C)Cc1ccc2c(c1)OCO2 (racemic) [MDMA]
- differentially expressed genes after prenatal exposure to MDMA (female group) (F1 female cerebral cortex at 11 weeks, dams 20 mg/kg/day p.o. GD 6 to PND 21, vs vehicle, Welch's T-test P<0.05, 1.5 fold change cut-off): 1,784 genes
- genes under-expressed in the female cerebral cortex [1]: 399 genes
- genes up-regulated (over-expressed) in the female cerebral cortex [1]: 1,385 genes
- differentially expressed genes after prenatal exposure to MDMA (male group) (F1 male cerebral cortex at 11 weeks, dams 20 mg/kg/day p.o. GD 6 to PND 21, vs vehicle, Welch's T-test P<0.05, 1.5 fold change cut-off): 804 genes
- genes under-expressed in the male cerebral cortex [2]: 469 genes
- genes up-regulated in the male cerebral cortex [2]: 335 genes
- common genes selected from the differentially expressed genes of females and males (common to 1,784 genes of females and 804 genes of males): 90 genes
- Expression change of the 1st to 36th genes of the 90 common genes [3]: reduced; also recorded: down-
- Expression change of the 37th to 90th genes of the 90 common genes [3]: up-
- effect on transcriptomic configuration of the cerebral cortex among offspring (maternal ingestion during pregnancy and lactation, F1 generation, hydrochloride): considerably affected; also recorded: this change was permanent
